Measured values reported in article PMC12311865, “In Vitro Evaluation of the Potential Interactions of Zearalenone-14-sulfate and Zearalenone-14-glucuronide with Human Cytochrome P450 Enzymes, Organic Anion Transporting Polypeptides, and ATP-Binding Cassette Multidrug Transporters” (ACS Omega, 2025).

Columns and labels:
Type in all cases: biochemical
MDR1 = target: T1, MDR1 (Homo sapiens, UniProt P08183); experiment: MDR1 vanadate-sensitive ATPase activity assay; conditions: up to 50 μM; Sf9 membrane vesicles
T1 construct: made in house; host or cells: Sf9 insect cells (baculovirus)
Experimental: (§1) ATPase activity was determined in Sf9 membrane vesicles containing human MDR1 or human BCRP prepared as described. − Appropriate amounts of vesicles (10 μg/50 μL) were used in the assays. Membrane vesicles were incubated with Mg-ATP (3 mM) for 25 min at 37 °C. Effects of the test compounds were examined up to 50 μM concentrations. […] ABC transporter function was determined as vanadate-sensitive ATPase activity. Liberated inorganic phosphate (Pi) was measured by a colorimetric reaction, as it has been reported. After 25 min, absorbance values were determined at 660 nm by a VictorX plate reader (PerkinElmer).

BCRP [1] = target: T2, BCRP (Homo sapiens, UniProt Q9UNQ0); experiment: BCRP-mediated LY vesicular transport (Sf9 membrane vesicles); conditions: for inhibition at 10 min, 50 μM: human, read-out: inhibition of BCRP-driven vesicular uptake of LY
T2 construct: made in house; host or cells: Sf9 insect cells (baculovirus)
T2 sequence (Q9UNQ0 1-655): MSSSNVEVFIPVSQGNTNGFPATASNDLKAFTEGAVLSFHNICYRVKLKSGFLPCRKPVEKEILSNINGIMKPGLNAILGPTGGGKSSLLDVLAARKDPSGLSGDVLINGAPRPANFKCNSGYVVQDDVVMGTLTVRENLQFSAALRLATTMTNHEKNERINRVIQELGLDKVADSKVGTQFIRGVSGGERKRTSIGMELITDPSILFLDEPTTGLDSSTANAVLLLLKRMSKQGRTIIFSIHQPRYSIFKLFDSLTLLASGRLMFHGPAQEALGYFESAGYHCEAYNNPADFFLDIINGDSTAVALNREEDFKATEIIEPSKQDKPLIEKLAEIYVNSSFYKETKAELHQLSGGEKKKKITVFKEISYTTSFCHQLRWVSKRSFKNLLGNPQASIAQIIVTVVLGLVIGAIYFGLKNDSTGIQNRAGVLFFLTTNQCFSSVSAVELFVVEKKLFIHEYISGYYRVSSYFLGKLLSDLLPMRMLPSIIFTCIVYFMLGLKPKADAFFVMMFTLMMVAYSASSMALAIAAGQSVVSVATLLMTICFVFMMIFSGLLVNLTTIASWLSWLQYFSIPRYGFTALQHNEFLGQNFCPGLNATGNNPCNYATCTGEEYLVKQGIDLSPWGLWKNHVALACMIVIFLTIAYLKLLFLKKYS
Experimental: Experiments were performed in insect membrane vesicles, as described previously. Briefly, human MDR1, BCRP, and MRP2 were expressed in Sf9 insect cells by baculoviruses. On the third day of infection, cells were collected and membrane vesicles were obtained by mechanical disruption and differential centrifugation. To get full activity for BCRP, the cholesterol levels of the vesicles were adjusted to the level of mammalian membranes. Vesicles were stored at −80 °C, and the total protein content of the preparations was measured by the Lowry method (used as a reference for the quantity). Membrane vesicles (50 μg protein/sample) were incubated at 37 °C for 10 min (without or with 4 mM Mg-ATP) in 50 μL volume in the presence of transporter-specific fluorescent substrates: N-methylquinidine (NMQ; 5 μM) for MDR1, lucifer yellow (LY; 10 μM) for BCRP, and 5(6)-carboxy-2′,7′-dichlorofluorescein (CDCF; 5 μM) for MRP2. […] ATP-dependent (4 mM) uptake of fluorescent substrates was examined in the presence of 0–50 μM concentrations of mycotoxins (ZEN, Z14S, or Z14GA). […] After incubation, samples were rapidly filtered and washed on a filter plate (MSFBN6B10; Millipore, Burlington, MA). Accumulated substrates in vesicles were solved back from the filter with 100 μL of SDS (10%) and centrifuged into another plate. A 100 μL volume of fluorescence stabilizer was added to the samples (DMSO for LY, 0.1 M H2SO4 for NMQ, and 0.1 M NaOH for CDCF). Fluorescence of samples was measured by plate readers (Victor X3 and Enspire PerkinElmer; Waltham, MA) at appropriate wavelengths (filters in the Victor X3 reader were 405/535 nm for LY and 492/635 nm for CDCF; while in the Enspire reader, NMQ was measured at 360/430 nm excitation/emission wavelengths). ABC-related transport was calculated by subtracting passive uptake measured without Mg-ATP from values measured in the presence of Mg-ATP.

BCRP [2] = target: T2, BCRP; experiment: BCRP vanadate-sensitive ATPase activity assay; conditions: for effect on BCRP-dependent ATPase activity: up to 50 μM, Z14S effect seen even at 2 μM
Experimental: as §1

T1 sequence (P08183 whole entry): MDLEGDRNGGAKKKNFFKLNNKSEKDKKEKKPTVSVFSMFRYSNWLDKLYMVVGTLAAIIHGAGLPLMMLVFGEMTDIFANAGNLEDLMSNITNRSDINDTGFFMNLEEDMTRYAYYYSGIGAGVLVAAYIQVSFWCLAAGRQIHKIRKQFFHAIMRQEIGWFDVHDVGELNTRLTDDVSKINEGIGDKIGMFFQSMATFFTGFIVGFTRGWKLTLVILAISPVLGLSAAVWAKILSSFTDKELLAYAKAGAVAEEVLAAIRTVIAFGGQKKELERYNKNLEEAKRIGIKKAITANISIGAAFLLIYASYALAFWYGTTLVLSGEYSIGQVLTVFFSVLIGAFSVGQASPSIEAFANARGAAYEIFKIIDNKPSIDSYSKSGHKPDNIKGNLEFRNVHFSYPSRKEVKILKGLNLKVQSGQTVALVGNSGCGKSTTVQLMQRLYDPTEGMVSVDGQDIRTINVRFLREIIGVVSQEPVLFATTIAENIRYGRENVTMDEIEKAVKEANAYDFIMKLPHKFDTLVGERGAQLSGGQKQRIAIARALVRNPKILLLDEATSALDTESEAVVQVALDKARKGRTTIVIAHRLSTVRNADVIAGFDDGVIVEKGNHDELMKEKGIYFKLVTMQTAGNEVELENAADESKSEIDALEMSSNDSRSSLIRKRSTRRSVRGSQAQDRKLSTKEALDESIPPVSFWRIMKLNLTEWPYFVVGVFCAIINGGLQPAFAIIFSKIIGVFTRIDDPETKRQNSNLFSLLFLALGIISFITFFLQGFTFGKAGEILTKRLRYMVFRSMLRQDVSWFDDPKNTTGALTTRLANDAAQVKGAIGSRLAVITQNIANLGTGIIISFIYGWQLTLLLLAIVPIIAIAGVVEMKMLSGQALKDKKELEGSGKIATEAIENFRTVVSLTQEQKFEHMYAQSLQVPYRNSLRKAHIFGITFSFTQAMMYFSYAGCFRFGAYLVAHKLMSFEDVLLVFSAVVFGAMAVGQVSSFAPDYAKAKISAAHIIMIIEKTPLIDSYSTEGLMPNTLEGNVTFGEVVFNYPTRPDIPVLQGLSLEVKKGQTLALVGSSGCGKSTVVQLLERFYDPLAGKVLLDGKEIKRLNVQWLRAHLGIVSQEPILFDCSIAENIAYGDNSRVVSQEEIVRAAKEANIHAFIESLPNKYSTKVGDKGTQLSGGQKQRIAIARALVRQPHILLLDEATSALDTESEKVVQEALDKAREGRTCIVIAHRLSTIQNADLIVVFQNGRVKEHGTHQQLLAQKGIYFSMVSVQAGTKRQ

| Structure (SMILES) | effect on MDR1 ATPase activity (MDR1) | effect on BCRP-driven vesicular uptake of LY (BCRP [1]; 0–50 μM, LY 10 μM) | effect on BCRP-dependent ATPase activity (BCRP [2]) | IC50 (BCRP [1]) [µM] | inhibition at 10 min, 50 μM (BCRP [1]; LY 10 μM) [%] | effect on basal ATPase activity of BCRP (BCRP [2]; 50 μM) |
| --- | --- | --- | --- | --- | --- | --- |
| C[C@H]1CCCC(=O)CCC/C=C/c2cc(O[C@@H]3O[C@H](C(=O)O)[C@@H](O)[C@H](O)[C@H]3O)cc(O)c2C(=O)O1 [Z14GA, Zearalenone-14-glucuronide] | did not modify | weak inhibitory action | did not affect | – | – | – |
| C[C@H]1CCCC(=O)CCC/C=C/c2cc(OS(=O)(=O)O)cc(O)c2C(=O)O1 [Z14S, zearalenone-14-sulfate] | did not modify | – | moderate increase | 4.4 | > 90 | – |
| C[C@H]1CCCC(=O)CCC/C=C/c2cc(O)cc(O)c2C(=O)O1 [ZEN, Zearalenone] | considerable elevation even at 5 μM concentration | – | no relevant impact | 2.6 | > 90 | slight inhibition |
